Data from patent publication US20030167556A1, “Methods and devices for transdermal delivery of anti-aging compounds for treatment and prevention of facial or neck skin aging” (Consumers Choice Systems, Inc., priority 2002, published 2003).

Key:
human skin = test: Ultra weak photon emission (UPE) assay of skin after UVA irradiation; assay type: in vivo; conditions: orbital patch with 0.3% CoQ10 once or twice daily for 7 days, 50 mJ/cm^2 UVA, vs delivery vehicle alone
Description: Oxidative events in human skin in vivo following delivery of CoQ10 via a facial patch or mask of the invention are detected, for example, by means of ultra weak photon emission assay [Sauermann et al., Oxidants & Antioxidants, Methods in Enzymology, L. Packer, ed., Academic Press, 300: 419-428 (1999), incorporated herein by reference]. In the basal state, cells emit low levels of photons. When UVA irradiation is applied there is an excited state with a large increase in the level of photons that decay with time. The level of photons emitted is an indication of the antioxidant status of the skin. If there is an increase in antioxidants, the excitation is less and the level of photons emitted will be reduced. The ultra weak photon emission (UPE) is measured after UVA irradiation in two age groups: (1) aged 18-25 years, (2) aged 60-72 years.

facial skin = test: Corneocyte surface area (senile xerosis) after facial patch or mask treatment; assay type: in vivo; conditions: patch or mask containing 0.3% CoQ10, once or twice daily for 7 days, vs delivery vehicle or carrier alone
Description: Although the stratum corneum, the outermost layer of the epidermis, is continuously sloughed off and replaced in healthy individuals, it will display symptoms of aging in the underlying living cells in older subjects. The area of corneocytes, which make up the stratum corneum, is proportional to the time taken for the keratinocyte to differentiate and move from the basal layer to the stratum corneum. In aged skin, the time taken to move through the epidermis increases, and corneocytes become larger. The surface can develop fine lines and become dry and scaly (senile xerosis). As aging progresses, the surface area of corneocytes increases, and thus this value can be measured to determine the effectiveness of an anti-aging treatment (i.e., to decrease the transit time and corneocyte surface area).

peri-orbital skin = test: Quantitative microtopography of skin casts, depth of deep wrinkles (photoaging); assay type: in vivo, human
Description: A significant adverse symptom of photoaging is the presence of deep wrinkles. […] In one exemplary protocol, an orbital patch containing CoQ10 in a delivery vehicle or carrier as described above is applied to one eye of a subject, and a control orbital patch containing a delivery vehicle alone is applied around the other eye. Casts are then prepared for quantitative microtopography [see, e.g., Hoppe, et al., J. Soc. Cosmetic Chemists 36: 105-123 (1985), incorporated herein by reference]. Photographs of the skin before treatment show deep wrinkles, which are characteristic of photoaging, whereas fine wrinkles are associated with chronological aging. Using microtopography to measure a reduction in the depth of wrinkles in aged skin, two important parameters can be calculated from the microtopography. They are: Rt which is the mean peak to valley measurement of a defined unit distance, and Rq which is the integrated area of the peaks and troughs. These measurements indicate the variation of the microtopography from a flat surface. […] In certain examples, treatment with an orbital patch containing 0.3% CoQ10 will results in at least a 25% reduction in the mean peak to valley depth of the skin and at least a 25% reduction in the Rq value, compared to controls.

[1] = intraduodenal, rats, with 1% (w/v) saline dispersion of polycarbophil; cited from earlier work
[2] = orbital patch containing 0.3% CoQ10, compared to controls

| Molecule | levels of UPE compared to control level (human skin) | corneocyte area over time (facial skin) | reduction in the Rq value (peri-orbital skin; [2]) [%] | reduction in the mean peak to valley depth of the skin (Rt) (peri-orbital skin; [2]) [%] | depth of deep wrinkles (peri-orbital skin; patch containing 0.3% CoQ10 once daily, at least 2 hours each day, one week to six months, vs vehicle control) | increase in bioavailability compared to aqueous solution without polymer [1] |
| --- | --- | --- | --- | --- | --- | --- |
| COC1=C(OC)C(=O)C(C/C=C(\C)CC/C=C(\C)CC/C=C(\C)CC/C=C(\C)CC/C=C(\C)CC/C=C(\C)CC/C=C(\C)CC/C=C(\C)CC/C=C(\C)CCC=C(C)C)=C(C)C1=O [CoQ10, CoEnzyme Q10] | significantly lower levels | significant decrease | ≥ 25 | ≥ 25 | significantly reduced |  |
| 9-desglycinamide, 8-arginine vasopressin [DGAVP] |  |  |  |  |  | 3-5 fold |
